What was measured:
Type in all cases: physicochemical
[1] = Thermogravimetry
[2] = DVS (dynamic vapor sorption) sorption/desorption isotherms; conditions: for Desorption / Sorption: DVS, 25 degrees Celsius; for XRPD after DVS: after DVS cycle at 25 degrees Celsius; for hygroscopicity classification: from DVS data at 25° C.
Text: Anhydrous modifications A and E of ribociclib succinate were submitted to DVS analysis. The results are reported in FIGS. 14 and 15 and in Table 12.

[3] = Conversion to dihydrate Modification HB (water activity, suspension equilibration)
[4] = Long term stability studies, exposure to high relative humidity; conditions: 75% RH at 40 or 50° C., less protective packaging material
[5] = Hydrate formation: exposure at ambient temperature at various relative humidity in a desiccator
[6] = heating rate 10 degrees Celsius per minute
[7] = relative humidity 10%, succinate
[8] = relative humidity 20%, succinate
[9] = relative humidity 30%, succinate
[10] = relative humidity 40%, succinate
[11] = relative humidity 50%, succinate
[12] = relative humidity 60%, succinate
[13] = relative humidity 70%, succinate
[14] = relative humidity 80%, succinate
[15] = relative humidity 90%, succinate
[16] = relative humidity 95%, succinate

## CN(C)C(=O)c1cc2cnc(Nc3ccc(N4CCNCC4)cn3)nc2n1C1CCCC1.O=C(O)CCC(=O)O [Modification E, 7-Cyclopentyl-2-(5-piperazin-1-yl-pyridin-2-ylamino)-7H-pyrrolo[2,3-d]pyrimidine-6-carboxylic acid dimethylamide succinate]
[1]; from 30 to 180° C.
  loss on drying: less than 0.05%
[1]; [6]
  decomposition temperature: about 200 °C
[2]; DVS cycle at 25° C.
  max water uptake (mass change): 0.1%
[2]; relative humidity 0%
  Desorption: 0.0 wt %
  Sorption: 0.0 wt %
[2]; [7]
  Desorption: 0.0 wt %
  Sorption: 0.0 wt %
[2]; relative humidity 20%
  Desorption: 0.1 wt %
[2]; [8]
  Sorption: 0.0 wt %
[2]; relative humidity 30%
  Desorption: 0.1 wt %
[2]; [9]
  Sorption: 0.1 wt %
[2]; relative humidity 40%
  Desorption: 0.1 wt %
[2]; [10]
  Sorption: 0.1 wt %
[2]; [11]
  Sorption: 0.1 wt %
[2]; [12]
  Sorption: 0.1 wt %
[2]; [13]
  Sorption: 0.1 wt %
[2]; [14]
  Sorption: 0.1 wt %
[2]; [15]
  Sorption: 0.1 wt %
[2]; [16]
  Sorption: 0.1 wt %
[2]
  XRPD after DVS: No change
[2]; succinate
  hygroscopicity classification: not hygroscopic
[3]; suspension equilibration at 25° C.
  water activity (aH2O) at which Modification HB is obtained: ≥ 0.68

## CN(C)C(=O)c1cc2cnc(Nc3ccc(N4CCNCC4)cn3)nc2n1C1CCCC1.O=C(O)CCC(=O)O [Modification A, 7-Cyclopentyl-2-(5-piperazin-1-yl-pyridin-2-ylamino)-7H-pyrrolo[2,3-d]pyrimidine-6-carboxylic acid dimethylamide succinate, reference compound]
[4]
  physical stability (XRPD): physically unstable
[1]; from 30 to 180° C.
  loss on drying: less than 0.05%
[1]; [6]
  decomposition temperature: about 200 °C
[2]; relative humidity 0%
  Desorption: 0.0 wt %
  Sorption: 0.0 wt %
[2]; [7]
  Desorption: 0.1 wt %
  Sorption: 0.1 wt %
[2]; relative humidity 20%
  Desorption: 0.1 wt %
[2]; [8]
  Sorption: 0.1 wt %
[2]; relative humidity 30%
  Desorption: 0.1 wt %
[2]; [9]
  Sorption: 0.2 wt %
[2]; relative humidity 40%
  Desorption: 0.1 wt %
[2]; [10]
  Sorption: 0.2 wt %
[2]; [11]
  Sorption: 0.2 wt %
[2]; [12]
  Sorption: 0.2 wt %
[2]; [13]
  Sorption: 0.3 wt %
[2]; [14]
  Sorption: 0.3 wt %
[2]; [15]
  Sorption: 0.5 wt %
[2]; [16]
  Sorption: 0.7 wt %
[2]
  XRPD after DVS: No change
[2]; exposed to 92% HR., 25° C.
  maximum mass change compared to the dry state: about 0.7%
[2]; exposed to 95% RH in DVS cycle at 25° C.
  water uptake in comparison to the dry state (0% RH): about 0.7%
[2]; succinate
  hygroscopicity classification: slightly hygroscopic
[5]; after 10 days at 92% RH, ambient temperature
  loss on drying by thermogravimetry: 3.9%
[5]; exposed to 92% RH at ambient temperature for 1 day, peaks assigned to Modification HA
  physical stability (XRPD): some additional peaks at about 4.7, 6.4, 12.0 and 13.0 degree 2θ can be detected
[5]; exposed to 92% RH at ambient temperature for 10 days
  conversion (XRPD): complete conversion
[5]; exposed up to 80% RH at ambient temperature for 1 day
  physical stability (XRPD): physically stable
[5]; starting material before exposure
  loss on drying by thermogravimetry: lower than 0.05%
[5]; sufficient amount of time at relative humidity close or higher than 92%
  behaviour at high relative humidity: starts to deliquesce
[3]; conversion observed in bulk at 40° C./75% RH
  water activity for conversion into dihydrate Modification HB: higher than 70 % relative humidity (RH)

## CN(C)C(=O)c1cc2cnc(Nc3ccc(N4CCNCC4)cn3)nc2n1C1CCCC1 [Modification F]
[1]; from 30 to 140° C.
  loss on drying: less than 0.0%

## CN(C)C(=O)c1cc2cnc(Nc3ccc(N4CCNCC4)cn3)nc2n1C1CCCC1.O.O.O=C(O)CCC(=O)O [Modification HB]
[1]; at about 120° C.
  mass loss on loss of water: about 5.8%
[1]; [6]
  decomposition temperature: about 200 °C
  temperature of loss of water: about 120 °C
[2]; relative humidity 0%
  Desorption: 0.0 wt %
  Sorption: 0.0 wt %
[2]; relative humidity 10%
  Desorption: 1.2 wt %
  Sorption: 0.8 wt %
[2]; relative humidity 20%
  Desorption: 1.7 wt %
  Sorption: 1.3 wt %
[2]; relative humidity 30%
  Desorption: 1.9 wt %
  Sorption: 1.7 wt %
[2]; relative humidity 40%
  Desorption: 2.0 wt %
  Sorption: 1.9 wt %
[2]; relative humidity 50%
  Sorption: 2.1 wt %
[2]; relative humidity 60%
  Sorption: 2.2 wt %
[2]; relative humidity 70%
  Sorption: 2.3 wt %
[2]; relative humidity 80%
  Sorption: 2.4 wt %
[2]; relative humidity 90%
  Sorption: 2.5 wt %
[2]; relative humidity 95%
  Sorption: 2.5 wt %
[2]
  XRPD after DVS: No change

From patent publication US20250281492A1, “NEW CRYSTALLINE FORMS OF SALT OF 7-CYCLOPENTYL-2-(5-PIPERAZIN-1-YL-PYRIDIN-2-YLAMINO)-7H-PYRROLO[2,3-D]PYRIMIDINE -6-CARBOXYLIC ACID DIMETHYLAMIDE” (priority 2019, published 2025)
